A short description of the assay: Compound was tested for inhibitory activity against type II Phospholipase A2 (PLA2) isolated from japanese mamushi (Agkistrodon halys blomhoffii) venom.

`CCCCCCCCCCCC(=O)N[C@H](CCCC)COP(=O)([O-])OCC[N+](C)(C)C` [(2-{[2-((S)-Dodecanoylamino)-hexyloxy]-hydroxy-phosphoryloxy}-ethyl)-trimethyl-ammonium]: the IC50 (commonly the concentration that gives 50% inhibition) turned out to be 5.3 µM.

In turn, `CCCCCCCCCCCC(=O)N1C(=O)O[C@@H](COP(=O)([O-])OCC[N+](C)(C)C)[C@H]1CCC` [{2-[((4R,5S)-3-Dodecanoyl-2-oxo-4-propyl-oxazolidin-5-ylmethoxy)-hydroxy-phosphoryloxy]-ethyl}-trimethyl-ammonium] came in with a concentration for half-maximal inhibition (IC50) of 45.8 µM.

Regarding `CCCCCCCCCCCC(=O)N1C(=O)O[C@H](COP(=O)([O-])OCC[N+](C)(C)C)[C@H]1CCC` [{2-[((4R,5S)-3-Dodecanoyl-2-oxo-4-propyl-oxazolidin-5-ylmethoxy)-hydroxy-phosphoryloxy]-ethyl}-trimethyl-ammonium], the IC50 stood at 19.8 µM.

In the case of `CCCCCCCCCCCC(=O)N1C(=O)O[C@H](COP(=O)([O-])OCC[N+](C)(C)C)[C@@H]1CCC` [{2-[((4S,5R)-3-Dodecanoyl-2-oxo-4-propyl-oxazolidin-5-ylmethoxy)-hydroxy-phosphoryloxy]-ethyl}-trimethyl-ammonium], inhibition was half-maximal at 52.9 µM (IC50).

`CCCCCCCCCCCC(=O)N1C(=O)O[C@@H](COP(=O)([O-])OCC[N+](C)(C)C)[C@@H]1CCC` [{2-[((4S,5S)-3-Dodecanoyl-2-oxo-4-propyl-oxazolidin-5-ylmethoxy)-hydroxy-phosphoryloxy]-ethyl}-trimethyl-ammonium] gave an IC50 of 40.1 µM.

`CCCCCCCCCCCC(=O)N1C(=O)OC[C@@H]1COP(=O)([O-])OCC[N+](C)(C)C` [{2-[((R)-3-Dodecanoyl-2-oxo-oxazolidin-4-ylmethoxy)-hydroxy-phosphoryloxy]-ethyl}-trimethyl-ammonium] gave an IC50 of 31.3 µM.

(Values after BindingDB's records for doi:10.1016/s0960-894x(98)00641-6 (Kwansei Gakuin University, 1999).)
